Assay results reported in patent EP1801117A1, “Means and methods for regulating amino acid pools and/or transport” (Friesland Brands B.V., priority 2005, dated 2007).

Biological target: L. lactis MG1363 BcaP (CtrA), branched-chain amino acid permease (Lactococcus lactis subsp. cremoris, UniProt A2RHI9)
Assay: Competition experiment: inhibition of L-[14C]isoleucine uptake by unlabeled L-amino acids in whole cells overproducing BcaP
Type: cell-based
Conditions: 10-fold excess of unlabeled L-amino acid; 250 µM unlabeled L-isoleucine (control); lactococcal cells overproducing BcaP; uptake after 1 min at 30°C; means of three measurements
Method: Amino acid transport assays. L. lactis MG1363 (pNGbcaP; pNZ9530), L. lactis MG1363 or L. lactis MGbcaP, the latter two harboring plasmids pNG8048 and pNZ9530, were grown at 30°C in 50 ml of ½GM17. At an OD600 of approximately 0.4, 1000^-1 volume of supernatant of the nisin-producing strain L. lactis NZ9700 (Kuipers et al, 1993) was added to the cultures to induce BcaP production. At an OD600 of approximately 1.0, cells were harvested by centrifugation at 6300 g and 4°C. Cell pellets were washed with 25 ml of ice-cold CDM, concentrated to an OD600 of 10.0 in CDM lacking amino acids and stored on ice until use. Cells were energized prior to transport assays by 5 min of incubation at 30°C in the presence of 0.5% glucose. Subsequently, 100 µl of cell suspension were mixed with 100 µL of CDM containing 40 µM of the unlabeled amino acid of interest and a final concentration of 1 µM of the same amino acid in a ^14C- or ^35S-labeled form (Amersham Biosciences). For competition experiments, a 10-fold excess of unlabeled amino acid was added. Mixtures were incubated at 30°C for various time intervals while stirring. The reactions were stopped by the addition of 2 ml of ice-cold 0.1 M LiCl, followed by filtration through 0.45 µm pore-size nitrocellulose filters (Schleicher & Schuell, GmbH, Dassel, Germany). Reaction tubes and filters were washed with another 2 mL of ice-cold 0.1 M LiCl. Subsequently, the filters were transferred to vials containing 2 ml of scintillation fluid (Packard BioScience, Groningen, the Netherlands) and radioactivity was determined using a Packard TriCarb 2000 CA liquid scintillation analyzer (Packard Instruments, Meriden, CT).

L. lactis MG1363 BcaP (CtrA), branched-chain amino acid permease, sequence (A2RHI9 whole entry): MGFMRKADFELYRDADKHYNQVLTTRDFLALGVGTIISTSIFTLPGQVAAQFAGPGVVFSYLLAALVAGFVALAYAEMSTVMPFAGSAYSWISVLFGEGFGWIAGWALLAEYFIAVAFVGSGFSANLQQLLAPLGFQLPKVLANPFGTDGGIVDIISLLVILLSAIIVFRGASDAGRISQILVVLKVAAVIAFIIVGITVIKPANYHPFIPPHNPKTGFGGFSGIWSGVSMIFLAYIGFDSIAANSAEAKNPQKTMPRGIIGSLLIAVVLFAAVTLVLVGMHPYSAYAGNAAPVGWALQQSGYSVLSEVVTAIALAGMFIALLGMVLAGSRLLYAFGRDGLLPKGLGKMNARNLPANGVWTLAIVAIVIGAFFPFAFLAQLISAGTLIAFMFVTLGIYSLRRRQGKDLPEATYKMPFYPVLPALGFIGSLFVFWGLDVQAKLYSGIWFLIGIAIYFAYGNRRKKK

Row | Structure (SMILES) | inhibition of isoleucine transport by BcaP (reduction of L-[14C]isoleucine uptake)
1 | CC[C@H](C)[C@H](N)C(=O)O [isoleucine] | about 80%
2 | CSCC[C@H](N)C(=O)O [methionine] | 23%
3 | CC(C)C[C@H](N)C(=O)O [leucine] | about 80%
4 | CC(C)[C@H](N)C(=O)O [valine] | 64%
